Assay results published in patent publication US20230147683A1, “TREATMENT” (UNION Therapeutics A/S, priority 2020, published 2023).

Experiments:
SARS-CoV-2 = test: Inhibition of SARS-CoV-2 replication in Caco-2 cells; assay type: cell-based; details: Severe acute respiratory syndrome coronavirus 2
in vitro [1] = details: human
in vitro [2] = details: African green monkey
[3] = system: SARS-CoV-2 B.1.1.7 strain; test: microbe, parasite or virus in culture; assay type: cell-based; details: Severe acute respiratory syndrome coronavirus 2; VeroE6 TMPRSS2 cells; read-out: EC50 against B.1.1.7 strain
SARS-CoV-2 D614 strain = test: microbe, parasite or virus in culture; assay type: cell-based; details: Severe acute respiratory syndrome coronavirus 2; VeroE6 TMPRSS2 cells; read-out: EC50 against D614 strain
[4] = system: SARS-CoV-2 B 1.351 strain; test: microbe, parasite or virus in culture; assay type: cell-based; details: Severe acute respiratory syndrome coronavirus 2; VeroE6 TMPRSS2 cells; read-out: EC50 against B 1.351 strain
[5] = human, in vivo
clinical = details: human, in vivo
[6] = 2 g/day oral dose; IC90 against SARS-CoV-2
[7] = asthmatic mice, niclosamide in corn oil, I.P. injection; cited from earlier work
TMEM16A = molecular target: T1, TMEM16A (Homo sapiens, UniProt Q5XXA6); details: cited from earlier work
T1 sequence (Q5XXA6 1-986): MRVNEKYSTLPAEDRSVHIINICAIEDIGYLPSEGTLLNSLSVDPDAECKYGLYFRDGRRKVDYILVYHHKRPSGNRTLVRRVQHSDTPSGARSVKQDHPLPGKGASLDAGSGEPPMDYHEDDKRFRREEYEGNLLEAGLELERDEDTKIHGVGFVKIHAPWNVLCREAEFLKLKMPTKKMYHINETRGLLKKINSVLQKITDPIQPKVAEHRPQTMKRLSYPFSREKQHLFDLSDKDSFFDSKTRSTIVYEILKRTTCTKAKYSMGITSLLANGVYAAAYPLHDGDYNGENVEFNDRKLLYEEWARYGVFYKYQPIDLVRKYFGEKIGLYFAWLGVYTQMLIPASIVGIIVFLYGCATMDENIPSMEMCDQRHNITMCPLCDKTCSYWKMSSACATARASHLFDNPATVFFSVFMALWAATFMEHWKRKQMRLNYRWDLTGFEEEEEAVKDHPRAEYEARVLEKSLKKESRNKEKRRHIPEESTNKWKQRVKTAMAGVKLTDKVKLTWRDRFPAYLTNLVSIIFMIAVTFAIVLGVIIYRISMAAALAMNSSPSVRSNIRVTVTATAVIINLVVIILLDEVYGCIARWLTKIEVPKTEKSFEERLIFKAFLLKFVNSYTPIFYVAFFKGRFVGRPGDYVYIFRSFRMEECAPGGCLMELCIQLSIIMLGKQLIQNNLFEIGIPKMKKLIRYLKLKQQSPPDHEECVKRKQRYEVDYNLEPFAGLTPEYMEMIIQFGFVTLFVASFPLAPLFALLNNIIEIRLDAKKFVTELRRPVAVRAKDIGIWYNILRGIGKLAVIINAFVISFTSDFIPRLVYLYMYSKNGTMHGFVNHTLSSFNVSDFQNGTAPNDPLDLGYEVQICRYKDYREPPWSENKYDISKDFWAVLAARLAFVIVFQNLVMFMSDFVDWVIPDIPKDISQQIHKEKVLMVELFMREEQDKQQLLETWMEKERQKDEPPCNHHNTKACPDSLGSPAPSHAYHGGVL

SARS-CoV = details: cited from earlier work
TMEM16F = molecular target: T2, TMEM16F (Homo sapiens, UniProt Q4KMQ2); details: cited from earlier work
T2 sequence (Q4KMQ2 1-910): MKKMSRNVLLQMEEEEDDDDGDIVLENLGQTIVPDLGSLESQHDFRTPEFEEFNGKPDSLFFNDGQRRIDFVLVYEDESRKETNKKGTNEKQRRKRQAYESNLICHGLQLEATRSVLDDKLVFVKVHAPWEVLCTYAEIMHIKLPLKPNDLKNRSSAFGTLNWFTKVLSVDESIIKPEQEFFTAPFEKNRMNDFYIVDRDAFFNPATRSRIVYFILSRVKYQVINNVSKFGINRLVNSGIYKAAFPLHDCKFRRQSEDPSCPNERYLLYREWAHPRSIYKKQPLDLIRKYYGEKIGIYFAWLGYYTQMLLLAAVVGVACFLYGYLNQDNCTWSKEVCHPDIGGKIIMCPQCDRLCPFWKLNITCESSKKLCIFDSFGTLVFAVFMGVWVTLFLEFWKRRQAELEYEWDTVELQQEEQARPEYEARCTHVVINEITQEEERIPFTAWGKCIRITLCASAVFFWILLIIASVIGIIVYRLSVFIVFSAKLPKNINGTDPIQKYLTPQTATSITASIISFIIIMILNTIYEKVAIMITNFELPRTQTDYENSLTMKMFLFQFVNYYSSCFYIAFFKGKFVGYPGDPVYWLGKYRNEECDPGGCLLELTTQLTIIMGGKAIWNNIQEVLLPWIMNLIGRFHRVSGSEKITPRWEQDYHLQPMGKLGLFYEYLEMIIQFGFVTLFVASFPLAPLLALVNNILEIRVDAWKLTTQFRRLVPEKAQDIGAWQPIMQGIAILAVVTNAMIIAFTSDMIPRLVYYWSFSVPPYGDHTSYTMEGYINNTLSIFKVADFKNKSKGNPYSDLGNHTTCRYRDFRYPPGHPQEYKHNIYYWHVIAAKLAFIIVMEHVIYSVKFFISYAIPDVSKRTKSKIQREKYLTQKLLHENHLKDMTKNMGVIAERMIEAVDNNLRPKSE

all targeted strains = test: Minimum Inhibitory Concentration (MIC) assay, all strains; details: read-out: MIC against all targeted strains

SMILES | EC50 (SARS-CoV-2) [nM] | CC50 (in vitro [1]) [nM] | CC50 (in vitro [2]) [nM] | EC50 [3] [nM] | EC50 (SARS-CoV-2 D614 strain) [nM] | EC50 [4] [nM] | peak concentrations in blood (range) [5] [ng/mL] | AUC(0-t) (clinical) [ng·h/mL] | Cmax (clinical; maximum plasma concentration (Cmax), mean) [ng/mL] | efficacy margin, mean systemic exposure of human oral dose to IC90 [6] [fold] | effect on mucus production and secretion and bronchoconstriction [7] | inhibition of TMEM16A (TMEM16A) | concentration at which viral antigen synthesis was totally abolished (SARS-CoV) [μm] | concentration suppressing cytopathic effect (CPE), as low as (SARS-CoV) [μm] | inhibition of TMEM16F (TMEM16F) | MIC (all targeted strains) [µg/mL]
O=C(Nc1ccc([N+](=O)[O-])cc1Cl)c1cc(Cl)ccc1O [niclosamide ethanolamine] | 80 | > 10000 | > 10000 | 80 | 130 | 70 | 29 to 506 | 509 | 239 | – | – | – | – | – | – | –
O=C(Nc1ccc([N+](=O)[O-])cc1Cl)c1cc(Cl)ccc1O [niclosamide, 5-chloro-N-(2-chloro-4-nitrophenyl)-2-hydroxybenzamide] | – | – | – | – | – | – | – | – | – | 8 | reduced mucus production and secretion, as well as bronchoconstriction | potent inhibitor | 1.56 | 1 | potent inhibitor | ≤ 0.5
